Laboratory results: patent US12371454B2, “Cyclic peptide compound having Kras inhibitory action” (priority 2019, dated 2025)
Starred links: 1 amine or outer side, 2 acyl side, 3 side chain; linkers in the order of their positions; H or OH if unused. Positions of bridges follow the written chain, without caps; N, C: chain ends. Non-standard residues stand in square brackets, D forms with d. Residues, ends and D or L forms follow the SMILES beside them. *: point of attachment. hPhe(3-Cl-4-CF3) = N[C@@H](CCc1ccc(C(F)(F)F)c(Cl)c1)C(=O)O; hPhe(3,4-Cl2) = N[C@@H](CCc1ccc(Cl)c(Cl)c1)C(=O)O; NMePhe(4-Cl) = CN[C@@H](Cc1ccc(Cl)cc1)C(=O)O; NMePhe(4-Me) = CN[C@@H](Cc1ccc(C)cc1)C(=O)O; NMedβ3hAla = C[C@H](CC(=O)[*:2])N(C)[*:1]; NMeGly(cPent) = CN[C@H](C(=O)O)C1CCCC1; NMeGly(cBu) = CN[C@H](C(=O)O)C1CCC1; NMeCha = CN[C@@H](CC1CCCCC1)C(=O)O; NMeChg = CN[C@H](C(=O)O)C1CCCCC1; NMeF = CN[C@@H](Cc1ccccc1)C(=O)O; NMeI = CC[C@H](C)[C@H](NC)C(=O)O; NMeD = CN[C@@H](CC(=O)O)C(=O)O; NMeL = CN[C@@H](CC(C)C)C(=O)O; NPrAla = CCCN[C@@H](C)C(=O)O; NMeV = CN[C@H](C(=O)O)C(C)C; NMeS = CN[C@@H](CO)C(=O)O; Morpholide = C1CN(*)CCO1; NMeA = CN[C@@H](C)C(=O)O; Piperidide = C1CCN(*)CC1; Ac5c = NC1(C(=O)O)CCCC1; Aze = O=C(O)[C@@H]1CCN1; Ac4c = NC1(C(=O)O)CCC1; Sar = CNCC(=O)O; Propyl = CCC*

Assays:
[1] = molecular target: T1, Kras and SOS1 (biotin-tagged human Kras loaded with GDP, His-tagged human SOS1) (Homo sapiens, UniProt P01116, G12D); assay: Protein-protein interaction inhibition between Kras and SOS1 (KrasGl2D-SOS PPI) using AlphaScreen; type: binding; conditions: AlphaScreen; biotin-tagged human Kras loaded with GDP, His-tagged human SOS1; read-out: KRAS G12D-SOS PPI IC50
T1 construct: made in house; host or cells: E. coli (stated for Kras only)
T1 sequence (P01116 1-188 isoform P01116-2 G12D): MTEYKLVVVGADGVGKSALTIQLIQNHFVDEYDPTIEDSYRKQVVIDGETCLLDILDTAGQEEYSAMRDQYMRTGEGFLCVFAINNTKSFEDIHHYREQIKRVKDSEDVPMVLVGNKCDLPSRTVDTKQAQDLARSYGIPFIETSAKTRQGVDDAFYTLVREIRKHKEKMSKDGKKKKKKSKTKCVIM
Summary of the method: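 AlphaScreen format: Ni donor beads capture His-SOS1, streptavidin acceptor beads capture biotinylated Kras (E. coli-expressed, GDP-loaded post-purification). Excite 680 nm, read 520-620 nm.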

[2] = system: Human pancreatic cancer cell line AsPC-1; assay: Measurement of AsPC-1 cell growth inhibition (AsPC-1 CGI); type: cell-based; conditions: 96 h
Summary of the method: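 AsPC-1 cells in 15% FBS RPMI-1640 were exposed to test compound for 96 hours at 37° C, with CellTiter-Glo as endpoint.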

Compound	IC50 [1]	IC50 [2]
CCCN1C(=O)C[C@@H](C)N(C)C(=O)[C@H](C(C)C)N(C)C(=O)C2(CCCC2)NC(=O)[C@@H]2CCCN2C(=O)[C@H](CCc2ccc(C(F)(F)F)c(Cl)c2)NC(=O)CN(C)C(=O)[C@H](CC2CCCCC2)N(C)C(=O)CN(C)C(=O)CN(C)C(=O)[C@H]([C@@H](C)CC)NC(=O)[C@@H]1C [Compound 824] (cyclo([Ac5c][NMeV][NMedβ3hAla][NPrAla]I[Sar][Sar][NMeCha][Sar][hPhe(3-Cl-4-CF3)]P))	5.6 nM	100 to 500 nM
CC[C@H](C)[C@@H]1NC(=O)[C@H](C)N(C)C(=O)C[C@@H](C(=O)N2CCCCC2)N(C)C(=O)[C@H](C2CCCCC2)N(C)C(=O)C2(CCCC2)NC(=O)[C@@H]2CCCN2C(=O)[C@H](CCc2ccc(Cl)c(Cl)c2)NC(=O)CN(C)C(=O)[C@H](CC2CCCCC2)N(C)C(=O)CN(C)C(=O)CN(C)C1=O [Compound 825] ([NMeA]I[Sar][Sar][NMeCha][Sar][hPhe(3,4-Cl2)]P[Ac5c][NMeChg][NMeD]-Piperidide; lactam N-11)	0.35 nM	50 to 100 nM
CC[C@H](C)[C@@H]1NC(=O)[C@H](CC(C)C)N(C)C(=O)C[C@@H](C)N(C)C(=O)[C@H](C(C)C)N(C)C(=O)C2(CCC2)NC(=O)[C@@H]2CCCN2C(=O)[C@H](CCc2ccc(C(F)(F)F)c(Cl)c2)NC(=O)CN(C)C(=O)[C@H](CC2CCCCC2)N(C)C(=O)CN(C)C(=O)CN(C)C1=O [Compound 837] (cyclo([Ac4c][NMeV][NMedβ3hAla][NMeL]I[Sar][Sar][NMeCha][Sar][hPhe(3-Cl-4-CF3)]P))	6 nM	50 to 100 nM
CC[C@H](C)[C@@H]1NC(=O)[C@H](CC(C)C)N(C)C(=O)C[C@@H](C(=O)N(C)C)N(C)C(=O)[C@H]([C@@H](C)CC)N(C)C(=O)C2(CCCC2)NC(=O)[C@H](Cc2ccc(Cl)cc2)N(C)C(=O)[C@H](CCc2ccc(C(F)(F)F)c(Cl)c2)NC(=O)CN(C)C(=O)[C@H](Cc2ccc(C)cc2)N(C)C(=O)[C@@H]2CCN2C(=O)[C@H](C)N(C)C1=O [Compound 838] ([NMeL]I[NMeA][Aze][NMePhe(4-Me)][Sar][hPhe(3-Cl-4-CF3)][NMePhe(4-Cl)][Ac5c][NMeI][NMeD]-NMe2; lactam N-11)	10 nM	100 to 500 nM
CC[C@H](C)[C@@H]1NC(=O)[C@H](CC(C)C)N(C)C(=O)C[C@@H](C)N(C)C(=O)[C@H](C2CCC2)N(C)C(=O)C2(CCCC2)NC(=O)[C@@H]2CCCN2C(=O)[C@H](CCc2ccc(C(F)(F)F)c(Cl)c2)NC(=O)CN(C)C(=O)[C@H](CC2CCCCC2)N(C)C(=O)CN(C)C(=O)CN(C)C1=O [Compound 845] (cyclo([Ac5c][NMeGly(cBu)][NMedβ3hAla][NMeL]I[Sar][Sar][NMeCha][Sar][hPhe(3-Cl-4-CF3)]P))	8.2 nM	50 to 100 nM
CC[C@H](C)[C@@H]1NC(=O)[C@H](C2CCCCC2)N(C)C(=O)C[C@@H](C(=O)N2CCCCC2)N(C)C(=O)[C@H](C2CCCCC2)N(C)C(=O)C2(CCCC2)NC(=O)[C@@H]2CCCN2C(=O)[C@H](CCc2ccc(C(F)(F)F)c(Cl)c2)NC(=O)CN(C)C(=O)[C@H](CC2CCCCC2)N(C)C(=O)CN(C)C(=O)CN(C)C1=O [Compound 849] ([NMeChg]I[Sar][Sar][NMeCha][Sar][hPhe(3-Cl-4-CF3)]P[Ac5c][NMeChg][NMeD]-Piperidide; lactam N-11)	1.9 nM	100 to 500 nM
CCCOC[C@H]1C(=O)N(C)CC(=O)N[C@@H](CCc2ccc(C(F)(F)F)c(Cl)c2)C(=O)N2CCC[C@H]2C(=O)NC2(CCCC2)C(=O)N(C)[C@@H](C2CCCCC2)C(=O)N(C)[C@H](C(=O)N2CCOCC2)CC(=O)N(C)[C@@H](C2CCC2)C(=O)N[C@@H]([C@@H](C)CC)C(=O)N(C)CC(=O)N(C)CC(=O)N1C [Compound 853] ([NMeGly(cBu)]I[Sar][Sar][NMeS](Propyl)[Sar][hPhe(3-Cl-4-CF3)]P[Ac5c][NMeChg][NMeD]-Morpholide; lactam N-11)	0.62 nM	100 to 500 nM
CC[C@H](C)[C@@H]1NC(=O)[C@H](CC(C)C)N(C)C(=O)C[C@@H](C(=O)N(C)C)N(C)C(=O)[C@H](C2CCCC2)N(C)C(=O)C2(CCCC2)NC(=O)[C@H](Cc2ccccc2)N(C)C(=O)[C@H](CCc2ccc(C(F)(F)F)c(Cl)c2)NC(=O)CN(C)C(=O)[C@H](CC2CCCCC2)N(C)C(=O)[C@@H]2CCN2C(=O)[C@H](C)N(C)C1=O [Compound 854] ([NMeL]I[NMeA][Aze][NMeCha][Sar][hPhe(3-Cl-4-CF3)][NMeF][Ac5c][NMeGly(cPent)][NMeD]-NMe2; lactam N-11)	11 nM	100 to 500 nM
